In article doi:10.1101/2024.08.19.608619, “Discovery of potent SARS-CoV-2 nsp3 macrodomain inhibitors uncovers lack of translation to cellular antiviral response” (bioRxiv, 2024):
In brackets after ≈: the same amount, converted by molar mass. Several values for one entry are separate records, joined by “and”; a condition that tells them apart may be missing. Identical values can stand only once. Like-named read-outs stand apart in the source and are kept apart here.

Columns and labels:
[1] = system: SARS-CoV-2, isolate USA-WA1/2020; test: microbe, parasite or virus in culture; format: cell-based; conditions: for perc_max_measured: maximum measured response of dose series; for perc_min_measured: minimum measured response of dose series
SARS-CoV-2 = test: Antiviral effect in iPSC-derived pneumocyte system; format: cell-based; conditions: iPSC pneumocytes SARS-CoV-2 antiviral effect; for perc_max_measured: maximum measured response of dose series; for perc_min_measured: minimum measured response of dose series
[2] = Hepatic microsomal stability, HLM; format: in vitro ADME, human; conditions: In vitro human liver microsomal stability; for perc_remaining_no_cofactor: no cofactor; for microsomal CLint: liver microsomes
[3] = Hepatic microsomal stability, MLM; format: in vitro ADME
iPSC pneumocytes = iPSC pneumocytes cytotoxicity; format: cell-based; conditions: for perc_max_measured: highest measured response of the dose series; for perc_min_measured: lowest measured response of the dose series
Source text: Supplement media-1.zip/Cytotoxicity.csv, table | column: cc10; cc50; perc_min_measured; perc_max_measured

HeLa-ACE2 cells = conditions: protocol HeLa-ACE2 cytotoxicity; for perc_max_measured: highest measured response of the dose series; for perc_min_measured: lowest measured response of the dose series
LogD = conditions: pH 7.4
in vitro [4] = test: in vitro; design: Cytotoxicity in iPSC-derived pneumocytes, CC50; conditions: human, ipsc-derived pneumocytes, read-out: 50.0
in vitro [5] = conditions: human, hela-ace2 cells, 50.0
[6] = In vitro kinetic solubility
[7] = Permeability Papp (AB) MDR1/MDCKII; conditions: In vitro MDR1-MDCKII permeability; for papp_a_to_b_mean: A to B; for perc_recovery_a_to_b_mean: recovery A to B
SARS-CoV-2 nsp3-mac1 = SARS-CoV-2 nsp3-mac1 (Severe acute respiratory syndrome coronavirus 2, UniProt P0DTD1); test: biochemical
in vitro [8] = conditions: human
MDR1 = test: Permeability Papp (AB) MDR1/MDCKII; conditions: dog, MDCK-MDR1, papp_a_to_b_mean, In vitro MDR1-MDCKII permeability, A to B
[9] = HeLa-ACE2 SARS-CoV-2 antiviral effect without P-gp inhibitor
[10] = HeLa-ACE2 SARS-CoV-2 antiviral effect without P-gp inhibitor, read-out: ec50
[11] = HeLa-ACE2 SARS-CoV-2 antiviral effect without P-gp inhibitor, read-out: ec90
[12] = In vitro mouse liver microsomal stability
[13] = In vitro mouse liver microsomal stability; no cofactor
[14] = protocol iPSC pneumocytes cytotoxicity
[15] = In vitro kinetic solubility, ph 7.4
[16] = Severe acute respiratory syndrome coronavirus 2, HeLa-ACE2
[17] = Severe acute respiratory syndrome coronavirus 2
[18] = In vitro mouse liver microsomal stability, no cofactor

Which results are given for `CNC(=O)c1cc2c(N[C@@H](c3ccc4c(c3)OCCO4)C(C)C)ncnc2[nH]1` [ASAP-0008348]?
perc_max_measured [1, 9]: 114.293%; perc_min_measured [1, 9]: 64.264%; EC50 [1, 10]: > 50 µM; EC90 [1, 11]: > 50 µM; EC50 (SARS-CoV-2): > 50 µM; EC90 (SARS-CoV-2): > 50 µM; perc_max_measured (SARS-CoV-2): 153.61%; perc_min_measured (SARS-CoV-2): 91.144%; clint [2]: 79.0 µL/min/mg; perc_remaining [2]: 23.0%; t_half [2]: 21.1 min; perc_remaining_no_cofactor [2]: 92.0%; clint [3, 12]: 55.0 µL/min/mg; perc_remaining [3, 12]: 43.0%; t_half [3, 12]: 30.5 min; perc_remaining_no_cofactor [3, 13]: 112.0%; CC50 (iPSC pneumocytes; [14]): > 50 µM; cc10 (iPSC pneumocytes; [14]): > 50.0 µM; perc_max_measured (iPSC pneumocytes; [14]): 98.804%; perc_min_measured (iPSC pneumocytes; [14]): 52.012%; CC50 (HeLa-ACE2 cells): > 50 µM; cc10 (HeLa-ACE2 cells): > 50.0 µM; perc_max_measured (HeLa-ACE2 cells): 108.404%; perc_min_measured (HeLa-ACE2 cells): 99.225%; logd (LogD; In vitro LogD): 2.76; CC50 (in vitro [4]; ASAP-0008327-001=ASAP-0008348-001): > 50 µM; CC50 at 24 h (in vitro [5]): > 50 µM; solubility_mean [6, 15]: 380 µM (≈ 145 µg/mL); papp_a_to_b_mean ([7]; mean): 1.96 ×10⁻⁶ cm/s; perc_recovery_a_to_b_mean ([7]; mean): 86.8%

Which results are given for `CCNC(=O)c1cc2c(NC(c3ccc4c(c3)OCCO4)C(C)C)ncnc2[nH]1` (stereo not drawn) [ASAP-0008444]?
IC50 (SARS-CoV-2 nsp3-mac1; IC50, nsp3-mac1 activity, Figures 1-3 and text): 0.24 µM; increase in potency relative to the starting point (SARS-CoV-2 nsp3-mac1; relative to ASAP-000450): 10 x; perc_max_measured [1, 9]: 122.873% and 94.861%; perc_min_measured [1, 9]: 70.184% and 54.623%; EC50 [1, 16]: > 20 µM; EC90 [1, 16]: > 20 µM; EC50 (SARS-CoV-2; [17]): 41.1 µM; EC90 (SARS-CoV-2; [17]): > 50 µM; perc_max_measured (SARS-CoV-2): 136.848%; perc_min_measured (SARS-CoV-2): 15.577%; perc_remaining [2]: 21.0%; t_half [2]: 19.7 min; perc_remaining_no_cofactor [2]: 103.0%; microsomal CLint [2]: 85 µL/min/mg; perc_remaining [3, 12]: 24.0%; t_half [3, 12]: 19.0 min; perc_remaining_no_cofactor [3, 13]: 109.0%; microsomal CLint ([3]; liver microsomes; In vitro mouse liver microsomal stability): 88 µL/min/mg; perc_max_measured (iPSC pneumocytes; [14]): 91.985%; perc_min_measured (iPSC pneumocytes; [14]): 70.899%; perc_max_measured (HeLa-ACE2 cells): 101.322% and 84.588%; perc_min_measured (HeLa-ACE2 cells): 64.265% and 70.325%; logd (LogD): 3; CC50 (in vitro [8]): > 20 µM; solubility ([6]; pH 7.4): 72 µM (≈ 28.5 µg/mL); perc_recovery_a_to_b_mean ([7]; mean): 85.8%; Papp A→B (MDR1; mean): 2.41 ×10⁻⁶ cm/s

With `CC(C)(C)[C@@H](Nc1ncnc2[nH]c(-c3cnn(CC(N)=O)c3)cc12)c1ccc2c(n1)OCCO2` [ASAP-0011162] as the molecule, how does the perc_max_measured [1, 9] read?
The perc_max_measured was 115.43%.

And the perc_min_measured [1, 9]?
Its perc_min_measured is 93.464%.

What about the EC50 [1, 10] of the same molecule?
The EC50 was greater than 20 µM.

And the EC90 [1, 11]?
Its EC90 is greater than 20 µM.

What about the EC50 (SARS-CoV-2) of the same molecule?
The EC50 was 11.4 µM.

What about the EC90 (SARS-CoV-2) of the same molecule?
The EC90 was greater than 50 µM.

And the perc_max_measured (SARS-CoV-2)?
Its perc_max_measured is 91.919%.

And the perc_min_measured (SARS-CoV-2)?
The perc_min_measured was 11.328%.

And the clint [2]?
The clint was 42.0 µL/min/mg.

And the perc_remaining [2]?
Its perc_remaining is 49.0%.

And the t_half [2]?
The t_half was 39.8 min.

What about the perc_remaining_no_cofactor [2] of the same molecule?
The perc_remaining_no_cofactor was 107.0%.

What about the clint [3, 12] of the same molecule?
Its clint is 30.0 µL/min/mg.

What about the perc_remaining [3, 12] of the same molecule?
The perc_remaining was 59.0%.

What about the t_half [3, 12] of the same molecule?
Its t_half is 56.2 min.

And the perc_remaining_no_cofactor [3, 18]?
The perc_remaining_no_cofactor was 109.0%.

What about the CC50 (iPSC pneumocytes) of the same molecule?
Its CC50 is greater than 50 µM.

And the cc10 (iPSC pneumocytes)?
The cc10 was greater than 50.0 µM.

And the perc_max_measured (iPSC pneumocytes)?
Its perc_max_measured is 104.975%.

And the perc_min_measured (iPSC pneumocytes)?
The perc_min_measured was 91.59%.

And the CC50 (HeLa-ACE2 cells)?
The CC50 was greater than 20 µM.

What about the cc10 (HeLa-ACE2 cells) of the same molecule?
Its cc10 is greater than 20.0 µM.

And the perc_max_measured (HeLa-ACE2 cells)?
The perc_max_measured was 99.27%.

And the perc_min_measured (HeLa-ACE2 cells)?
Its perc_min_measured is 66.005%.

What about the logd (LogD; In vitro LogD) of the same molecule?
Its logd is 2.9.

What about the CC50 (in vitro [4]; ASAP-0008327-001=ASAP-0011162-001) of the same molecule?
Its CC50 is greater than 50 µM.

And the CC50 at 24 h (in vitro [5])?
Its CC50 at 24 h is greater than 20 µM.

What about the solubility_mean [6, 15] of the same molecule?
Its solubility_mean is 390 µM (≈ 180 µg/mL).

And the papp_a_to_b_mean ([7]; mean)?
The papp_a_to_b_mean was 1.53 ×10⁻⁶ cm/s.

What about the perc_recovery_a_to_b_mean ([7]; mean) of the same molecule?
Its perc_recovery_a_to_b_mean is 75.9%.

Which results are given for `CNCc1cc(-c2cc3c(N[C@@H](c4ccc5c(c4)S(=O)(=O)NCC5)C(C)C)ncnc3[nH]2)co1` [ASAP-0011243]?
perc_max_measured [1, 9]: 99.818%; perc_min_measured [1, 9]: 81.688%; EC50 [1, 10]: > 20 µM; EC90 [1, 11]: > 20 µM; EC50 (SARS-CoV-2): 30.7 µM; EC90 (SARS-CoV-2): > 50 µM; perc_max_measured (SARS-CoV-2): 102.14%; perc_min_measured (SARS-CoV-2): 30.967%; clint [2]: 46.0 µL/min/mg; perc_remaining [2]: 47.0%; t_half [2]: 35.9 min; perc_remaining_no_cofactor [2]: 93.0%; clint [3, 12]: 42.0 µL/min/mg; perc_remaining [3, 12]: 49.0%; t_half [3, 12]: 40.0 min; perc_remaining_no_cofactor [3, 18]: 95.0%; CC50 (iPSC pneumocytes): > 50 µM; cc10 (iPSC pneumocytes): > 50.0 µM; perc_max_measured (iPSC pneumocytes): 101.3%; perc_min_measured (iPSC pneumocytes): 90.486%; CC50 (HeLa-ACE2 cells): > 20 µM; cc10 (HeLa-ACE2 cells): > 20.0 µM; perc_max_measured (HeLa-ACE2 cells): 96.42%; perc_min_measured (HeLa-ACE2 cells): 81.709%; logd (LogD; In vitro LogD): 1.9; CC50 (in vitro [4]; ASAP-0008327-001=ASAP-0011243-001): > 50 µM; CC50 at 24 h (in vitro [5]): > 20 µM; solubility_mean [6, 15]: 372 µM (≈ 179 µg/mL); papp_a_to_b_mean ([7]; mean): 1.2 ×10⁻⁶ cm/s; perc_recovery_a_to_b_mean ([7]; mean): 76.5%

Which results are given for `CCNC(=O)c1cc2c(NC(c3ccc4c(c3)S(=O)(=O)CCC4)C(C)C)ncnc2[nH]1` (stereo not drawn) [ASAP-0012349]?
IC50 (SARS-CoV-2 nsp3-mac1; HTRF IC50, Figure 4B, bioactive pure enantiomer): 0.031 µM; perc_max_measured [1, 9]: 108.517%; perc_min_measured [1, 9]: 90.612%; EC50 ([1]; Severe acute respiratory syndrome coronavirus 2, HeLa-ACE2 SARS-CoV-2 antiviral effect without P-gp inhibitor, read-out: ec50): > 20 µM; EC90 ([1]; Severe acute respiratory syndrome coronavirus 2, HeLa-ACE2 SARS-CoV-2 antiviral effect without P-gp inhibitor, read-out: ec90): > 20 µM; perc_remaining [2]: 0.0%; t_half [2]: 1.9 min; perc_remaining_no_cofactor [2]: 102.0%; microsomal CLint ([2]; human): 892 µL/min/mg; perc_remaining [3, 12]: 43.0%; t_half [3, 12]: 30.8 min; perc_remaining_no_cofactor [3, 18]: 114.0%; microsomal CLint ([3]; mouse, liver microsomes, In vitro mouse liver microsomal stability): 54 µL/min/mg; cc10 (HeLa-ACE2 cells): > 20.0 µM; perc_max_measured (HeLa-ACE2 cells): 99.328%; perc_min_measured (HeLa-ACE2 cells): 84.17%; logd (LogD; pH 7.4, logd, In vitro LogD): 2.8; CC50 (in vitro [8]): > 20 µM; solubility ([6]; pH 7.4, solubility_mean, In vitro kinetic solubility, ph 7.4): 316 µM (≈ 140 µg/mL); perc_recovery_a_to_b_mean ([7]; no inhibitor): 66.9%; Papp A→B (MDR1; no inhibitor): 0.532 ×10⁻⁶ cm/s
